Data from PubChem BioAssay AID330 (DTP/NCI, 2004).
Values joined by “and” are separate entries in the source; they are usually repeats but may differ in a detail not shown here. Equal entries are not always repeated. Inconclusive results and toxic doses are left out.

Tested on: P388 leukemia ip, CD2F1 mice, survival T/C
Assay: NCI In Vivo Anticancer Drug Screen. Data for tumor model P388 Leukemia (intraperitoneal) in CD2F1 (CDF1) mice
Settings: endpoint: median survival time, higher = longer survival
Outline: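 Mice carrying the transplanted tumor received test compound or vehicle. Survival was recorded in each group, and the value is the treated-group measurement divided by that of the vehicle-treated control group.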

[1] = dose: 25.0 mg/kg/injection, schedule: Q01DX009 (ip), vehicle: saline with Tween-80
[2] = dose: 50.0 mg/kg/injection, schedule: Q01DX009 (ip), vehicle: saline with Tween-80
[3] = dose: 100.0 mg/kg/injection, schedule: Q01DX009 (ip), vehicle: saline with Tween-80
[4] = dose: 120.0 mg/kg/injection, schedule: Q01DX005 (ip), vehicle: saline
[5] = dose: 200.0 mg/kg/injection, schedule: Q01DX009 (ip), vehicle: saline with Tween-80
[6] = dose: 60.0 mg/kg/injection, schedule: Q01DX005 (ip), vehicle: saline with Tween-80
[7] = dose: 120.0 mg/kg/injection, schedule: Q01DX005 (ip), vehicle: saline with Tween-80
[8] = dose: 240.0 mg/kg/injection, schedule: Q01DX005 (ip), vehicle: saline with Tween-80
[9] = dose: 50.0 mg/kg/injection, schedule: Q01DX005 (ip), vehicle: Klucel (hydroxypropylcellulose) (HPC)
[10] = dose: 100.0 mg/kg/injection, schedule: Q01DX005 (ip), vehicle: Klucel (hydroxypropylcellulose) (HPC)
[11] = dose: 25.0 mg/kg/injection, schedule: Q01DX005 (ip), vehicle: saline with Tween-80
[12] = dose: 50.0 mg/kg/injection, schedule: Q01DX005 (ip), vehicle: saline with Tween-80
[13] = dose: 6.25 mg/kg/injection, schedule: Q01DX005 (ip), vehicle: saline
[14] = dose: 12.5 mg/kg/injection, schedule: Q01DX005 (ip), vehicle: saline

## CCN(CC)C1=Nc2ccccc2N(c2ccccc2)C(N2CCCCC2)=C1
dose: 12.5 mg/kg/injection, schedule: Q04DX002 (ip), vehicle: Klucel (hydroxypropylcellulose) (HPC)
  T/C: 99 % of control
dose: 25.0 mg/kg/injection, schedule: Q04DX002 (ip), vehicle: Klucel (hydroxypropylcellulose) (HPC)
  T/C: 99 % of control
dose: 50.0 mg/kg/injection, schedule: Q04DX002 (ip), vehicle: Klucel (hydroxypropylcellulose) (HPC)
  T/C: 101 % of control

## CCCCC/C(C)=C\CBr
[1]
  T/C: 96 % of control
[2]
  T/C: 99 % of control
[3]
  T/C: 89 % of control

## COc1cc(C=Nc2cc(Cl)ccc2-n2ccnc2C)ccc1N(CCCl)CCCl
dose: 50.0 mg/kg/injection, schedule: Q04DX003 (ip), vehicle: saline with Tween-80
  T/C: 222 % of control
dose: 200.0 mg/kg/injection, schedule: Q04DX003 (ip), vehicle: saline with Tween-80
  T/C: 88 % of control

## OC1(c2ccccc2)C(c2ccccc2)=C(c2ccccc2)C(c2ccc(CCCCCCCCc3ccc(C4=C(c5ccccc5)C(O)(c5ccccc5)C(c5ccccc5)=C4c4ccccc4)cc3)cc2)=C1c1ccccc1 (stereo not given)
dose: 100.0 mg/kg/injection, schedule: Q01DX001 (ip), vehicle: Klucel (hydroxypropylcellulose) (HPC)
  T/C: 86 % of control
dose: 200.0 mg/kg/injection, schedule: Q01DX001 (ip), vehicle: Klucel (hydroxypropylcellulose) (HPC)
  T/C: 89 % of control

## CCCC[C@H]1C(=O)O[C@H](C)[C@H](NC(=O)c2cccc(NC=O)c2O)C(=O)O[C@@H](C)[C@@H]1OC(=O)CC(C)C
dose: 0.12 mg/kg/injection, schedule: Q01DX009 (ip), vehicle: Klucel (hydroxypropylcellulose) (HPC)
  T/C: 105 % of control
dose: 0.25 mg/kg/injection, schedule: Q01DX009 (ip), vehicle: Klucel (hydroxypropylcellulose) (HPC)
  T/C: 105 % of control
dose: 0.5 mg/kg/injection, schedule: Q01DX009 (ip), vehicle: Klucel (hydroxypropylcellulose) (HPC)
  T/C: 109 % of control
dose: 1.0 mg/kg/injection, schedule: Q01DX009 (ip), vehicle: Klucel (hydroxypropylcellulose) (HPC)
  T/C: 119 % of control

## CC[N+]12CC=C(CO)C1C(O)CC2 (stereo not given)
dose: 60.0 mg/kg/injection, schedule: Q01DX005 (ip), vehicle: saline
  T/C: 97 % of control
[4]
  T/C: 95 % of control
dose: 240.0 mg/kg/injection, schedule: Q01DX005 (ip), vehicle: saline
  T/C: 106 % of control

## Cn1c([N+](=O)[O-])cnc1CSC(=S)N1CCN(C(=S)SCc2ncc([N+](=O)[O-])n2C)CC1
[2]
  T/C: 99 % of control and 104 % of control and 96 % of control
[3]
  T/C: 101 % of control and 93 % of control and 95 % of control
[5]
  T/C: 102 % of control and 107 % of control and 92 % of control

## CO/C=C1\SC(=S)N(c2ccc(NC(C)=O)cc2)C1=O
[2]
  T/C: 93 % of control
[3]
  T/C: 92 % of control
[5]
  T/C: 96 % of control

## COC(=O)c1cc(Nc2ccccc2)c2ncccc2c1O
[6]
  T/C: 92 % of control
[7]
  T/C: 98 % of control
[8]
  T/C: 98 % of control

## COc1cc(OC)c(C(=O)C(CN(C)C)CN(C)C)cc1OC
dose: 1.87 mg/kg/injection, schedule: Q01DX005 (ip), vehicle: saline
  T/C: 113 % of control
dose: 3.75 mg/kg/injection, schedule: Q01DX005 (ip), vehicle: other
  T/C: 113 % of control
dose: 3.75 mg/kg/injection, schedule: Q01DX005 (ip), vehicle: saline
  T/C: 107 % of control
dose: 7.5 mg/kg/injection, schedule: Q01DX005 (ip), vehicle: other
  T/C: 108 % of control
dose: 7.5 mg/kg/injection, schedule: Q01DX005 (ip), vehicle: saline
  T/C: 106 % of control
dose: 15.0 mg/kg/injection, schedule: Q01DX005 (ip), vehicle: saline
  T/C: 107 % of control
[4]
  T/C: 124 % of control

## CCC1(O)CC2CN(CCc3c([nH]c4ccccc34)C(C(=O)OC)(c3cc4c(cc3OC)N(C)C3C(O)(C(=O)NCCO)C(O)C5(CC)C=CCN6CCC43C65)C2)C1 (stereo not given)
dose: 0.13 mg/kg/injection, schedule: Q01DX009 (ip), vehicle: water
  T/C: 105 % of control
dose: 0.2 mg/kg/injection, schedule: Q01DX009 (ip), vehicle: saline
  T/C: 150 % of control
dose: 0.22 mg/kg/injection, schedule: Q01DX009 (ip), vehicle: water
  T/C: 117 % of control
dose: 0.36 mg/kg/injection, schedule: Q01DX009 (ip), vehicle: water
  T/C: 122 % of control
dose: 0.4 mg/kg/injection, schedule: Q01DX009 (ip), vehicle: saline
  T/C: 167 % of control
dose: 0.6 mg/kg/injection, schedule: Q01DX009 (ip), vehicle: water
  T/C: 153 % of control
dose: 0.63 mg/kg/injection, schedule: Q04DX003 (ip), vehicle: saline
  T/C: 183 % of control
dose: 0.8 mg/kg/injection, schedule: Q01DX009 (ip), vehicle: saline
  T/C: 96 % of control
dose: 1.0 mg/kg/injection, schedule: Q01DX009 (ip), vehicle: water
  T/C: 104 % of control
dose: 1.25 mg/kg/injection, schedule: Q04DX003 (ip), vehicle: saline
  T/C: 223 % of control
dose: 2.5 mg/kg/injection, schedule: Q04DX003 (ip), vehicle: saline
  T/C: 274 % of control

## COC1OC(C(C)O)C2OC(C)(C)OC12 (stereo not given)
dose: 30.0 mg/kg/injection, schedule: Q01DX005 (ip), vehicle: saline with Tween-80
  T/C: 101 % of control
[6]
  T/C: 104 % of control and 106 % of control
[7]
  T/C: 108 % of control
[8]
  T/C: 106 % of control and 110 % of control

## CC(C)C12CCC3(CCC4C(C)(C(=O)O)CCCC4(C)C3C1)C(CN)C2 (stereo not given)
dose: 25.0 mg/kg/injection, schedule: Q01DX005 (ip), vehicle: Klucel (hydroxypropylcellulose) (HPC)
  T/C: 101 % of control
[9]
  T/C: 106 % of control
[10]
  T/C: 99 % of control
dose: 200.0 mg/kg/injection, schedule: Q01DX005 (ip), vehicle: Klucel (hydroxypropylcellulose) (HPC)
  T/C: 100 % of control

## O=C(COc1ccc(Cl)cc1Cl)N1CCNC1=O
dose: 50.0 mg/kg/injection, schedule: Q01DX009 (ip), vehicle: Klucel (hydroxypropylcellulose) (HPC)
  T/C: 103 % of control
dose: 100.0 mg/kg/injection, schedule: Q01DX009 (ip), vehicle: Klucel (hydroxypropylcellulose) (HPC)
  T/C: 98 % of control
dose: 200.0 mg/kg/injection, schedule: Q01DX009 (ip), vehicle: Klucel (hydroxypropylcellulose) (HPC)
  T/C: 97 % of control

## CCCCCCCC/C=C\CCCCCCCCCCCC(=O)OCCN(CCOC(=O)CCCCCCCCCCC/C=C\CCCCCCCC)C(=O)c1ccccc1
[2]
  T/C: 106 % of control
[3]
  T/C: 116 % of control
[5]
  T/C: 116 % of control

## c1ccc2c(c1)oc1cc3c(cc12)n1nnnc1c1cccn31
[11]
  T/C: 92 % of control
[12]
  T/C: 97 % of control
dose: 100.0 mg/kg/injection, schedule: Q01DX005 (ip), vehicle: saline with Tween-80
  T/C: 100 % of control
dose: 200.0 mg/kg/injection, schedule: Q01DX005 (ip), vehicle: saline with Tween-80
  T/C: 100 % of control

## COc1cc(NCCCC2CCCCN2)c2ncccc2c1OC (stereo not given)
[13]
  T/C: 103 % of control
[14]
  T/C: 101 % of control

## S=C(NNc1nnc(-c2ccccc2)c(-c2ccccc2)n1)Nc1ccccc1
dose: 12.5 mg/kg/injection, schedule: Q01DX005 (ip), vehicle: saline with Tween-80
  T/C: 106 % of control
[11]
  T/C: 97 % of control
[12]
  T/C: 90 % of control and 93 % of control

## COc1cc(/C=C/Cc2cc3c(cc2OCCO)OCO3)cc(OC)c1OC
[6]
  T/C: 94 % of control
[7]
  T/C: 92 % of control
[8]
  T/C: 101 % of control

## O=C1CCCCCC1Cc1cc(O)c(CC2CCCCCC2=O)cc1O (stereo not given)
[1]
  T/C: 96 % of control
[2]
  T/C: 93 % of control
[3]
  T/C: 98 % of control
[5]
  T/C: 94 % of control

## CCCCN(CCCC)C(=N)c1ccc(OC)c(OC)c1
[13]
  T/C: 98 % of control
[14]
  T/C: 100 % of control
dose: 25.0 mg/kg/injection, schedule: Q01DX005 (ip), vehicle: saline
  T/C: 100 % of control

## C1=CC2CC1CC2[P+](c1ccccc1)(c1ccccc1)c1ccccc1 (stereo not given)
dose: 12.5 mg/kg/injection, schedule: Q01DX001 (ip), vehicle: saline
  T/C: 102 % of control
dose: 25.0 mg/kg/injection, schedule: Q01DX001 (ip), vehicle: saline
  T/C: 115 % of control
dose: 50.0 mg/kg/injection, schedule: Q01DX001 (ip), vehicle: saline
  T/C: 97 % of control

## CCO[C@H]1c2cc3c(cc2[C@@H](c2cc(OC)c(OC)c(OC)c2)[C@H]2C(=O)OC[C@@H]21)OCO3
[9]
  T/C: 96 % of control
[10]
  T/C: 112 % of control

## O=C(COc1cccc(Cl)c1)NCc1ccc([N+](=O)[O-])cc1
dose: 100.0 mg/kg/injection, schedule: Q01DX001 (ip), vehicle: saline with Tween-80
  T/C: 100 % of control
dose: 200.0 mg/kg/injection, schedule: Q01DX001 (ip), vehicle: saline with Tween-80
  T/C: 90 % of control
dose: 400.0 mg/kg/injection, schedule: Q01DX001 (ip), vehicle: saline with Tween-80
  T/C: 100 % of control
